In ChEMBL document CHEMBL4715760, “Balancing potency, metabolic stability and permeability in pyrrolopyrimidine-based EGFR inhibitors” (Eur J Med Chem, 2016):
In brackets after ≈: the same amount, converted by molar mass.

Legend:
[1] = biological target: T1, Epidermal growth factor receptor (Homo sapiens, UniProt P00533); experiment: Inhibition of human EGFR using poly[Glu:Tyr] (4:1) as substrate in presence of [gamma33P]ATP by radiometric HotSpot assay
[2] = Metabolic stability in pooled human liver microsomes assessed as half life at 3 uM measured up to 45 mins in presence of NADPH by LC-MS/MS analysis; format: ADME, Microsome; settings: for half-life at 3 µM: pooled liver microsomes
[3] = Metabolic stability in pooled human liver microsomes assessed as Clearance at 3 uM measured up to 45 mins in presence of NADPH by LC-MS/MS analysis; format: ADME, Microsome; settings: for microsomal CLint at 3 µM: pooled liver microsomes, read-out: CLH
[4] = biological target: T1, Epidermal growth factor receptor; settings: dose 100.0 nM
Description: Inhibition of human EGFR at 100 nM using poly[Glu:Tyr] (4:1) as substrate in presence of [gamma33P]ATP by radiometric HotSpot assay relative to control

[5] = Protein binding in plasma (unknown origin) assessed as unbound fraction at 5 uM by LC-MS/MS based equilibrium dialysis analysis
[6] = biological target: T1, Epidermal growth factor receptor; experiment: Inhibition of EGFR (unknown origin) using Tyr 04 peptide as substrate incubated for 1 hr by Z'-LYTE assay
[7] = biological target: T1, Epidermal growth factor receptor; settings: dose 100.0 nM, time 1.0 hrs
BaF3 = experiment: Antiproliferative activity against mouse Ba/F3 cells expressing EGFR-L858R mutant assessed as inhibition of cell growth incubated for 48 hrs by XTT assay; format: functional, cell-based; settings: BaF3, 48 h
A-431 = experiment: Antiproliferative activity against human A431 cells; format: functional, cell-based
[8] = Apparent permeability from apical to basolateral side in human Caco2 cells at 10 uM measured for 120 mins by LC-MS/MS analysis; settings: for Papp: caco-2, 2 h, 10 µM; for Papp A→B at 2 h, 10 µM: Caco-2
[9] = Efflux ratio of apparent permeability across basolateral to apical side over apical to basolateral side in human Caco2 cells at 10 uM measured for 120 mins by LC-MS/MS analysis
[10] = Apparent permeability from basolateral to apical side in human Caco2 cells at 10 uM measured for 120 mins by LC-MS/MS analysis; settings: for Papp: caco-2, 2 h, 10 µM; for Papp B→A at 2 h, 10 µM: Caco-2
physchem = settings: phosphate buffered saline, pH 7.4
[11] = biological target: Voltage-gated inwardly rectifying potassium channel KCNH2 (Homo sapiens, UniProt Q12809); experiment: Inhibition of human ERG expressed in CHO cells at -80 mV holding potential by IonWorks patch-clamp electrophysiology assay
Sequence of Voltage-gated inwardly rectifying potassium channel KCNH2 (Q12809 whole entry): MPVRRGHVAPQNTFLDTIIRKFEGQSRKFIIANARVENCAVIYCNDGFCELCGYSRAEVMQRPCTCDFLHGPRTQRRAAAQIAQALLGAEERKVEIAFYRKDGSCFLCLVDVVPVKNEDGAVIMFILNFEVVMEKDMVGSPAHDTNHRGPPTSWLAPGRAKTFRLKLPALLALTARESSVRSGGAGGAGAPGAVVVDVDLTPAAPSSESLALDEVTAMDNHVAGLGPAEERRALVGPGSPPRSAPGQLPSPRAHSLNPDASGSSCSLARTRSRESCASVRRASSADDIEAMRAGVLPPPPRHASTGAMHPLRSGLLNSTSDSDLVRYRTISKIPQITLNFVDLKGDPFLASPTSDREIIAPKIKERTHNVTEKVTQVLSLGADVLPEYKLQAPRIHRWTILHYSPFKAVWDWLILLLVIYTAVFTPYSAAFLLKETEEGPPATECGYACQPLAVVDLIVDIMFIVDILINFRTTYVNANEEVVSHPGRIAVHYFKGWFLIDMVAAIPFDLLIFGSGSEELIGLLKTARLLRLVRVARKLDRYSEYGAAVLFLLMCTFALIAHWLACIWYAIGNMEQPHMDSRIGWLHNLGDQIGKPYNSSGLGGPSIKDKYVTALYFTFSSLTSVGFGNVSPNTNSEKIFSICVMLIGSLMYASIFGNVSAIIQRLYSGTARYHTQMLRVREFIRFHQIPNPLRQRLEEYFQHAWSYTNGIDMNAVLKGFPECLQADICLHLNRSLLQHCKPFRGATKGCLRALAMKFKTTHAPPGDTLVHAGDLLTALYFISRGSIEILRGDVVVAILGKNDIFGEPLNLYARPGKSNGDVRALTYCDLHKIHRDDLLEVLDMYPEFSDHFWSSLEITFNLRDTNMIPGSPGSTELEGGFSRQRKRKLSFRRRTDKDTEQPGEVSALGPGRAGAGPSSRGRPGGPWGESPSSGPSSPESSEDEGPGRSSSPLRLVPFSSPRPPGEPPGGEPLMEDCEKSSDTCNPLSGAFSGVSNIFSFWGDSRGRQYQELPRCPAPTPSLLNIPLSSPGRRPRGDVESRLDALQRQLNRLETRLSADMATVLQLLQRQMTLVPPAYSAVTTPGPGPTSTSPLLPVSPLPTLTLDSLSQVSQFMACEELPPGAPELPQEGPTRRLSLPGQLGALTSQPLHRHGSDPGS

T1 sequence (P00533 whole entry): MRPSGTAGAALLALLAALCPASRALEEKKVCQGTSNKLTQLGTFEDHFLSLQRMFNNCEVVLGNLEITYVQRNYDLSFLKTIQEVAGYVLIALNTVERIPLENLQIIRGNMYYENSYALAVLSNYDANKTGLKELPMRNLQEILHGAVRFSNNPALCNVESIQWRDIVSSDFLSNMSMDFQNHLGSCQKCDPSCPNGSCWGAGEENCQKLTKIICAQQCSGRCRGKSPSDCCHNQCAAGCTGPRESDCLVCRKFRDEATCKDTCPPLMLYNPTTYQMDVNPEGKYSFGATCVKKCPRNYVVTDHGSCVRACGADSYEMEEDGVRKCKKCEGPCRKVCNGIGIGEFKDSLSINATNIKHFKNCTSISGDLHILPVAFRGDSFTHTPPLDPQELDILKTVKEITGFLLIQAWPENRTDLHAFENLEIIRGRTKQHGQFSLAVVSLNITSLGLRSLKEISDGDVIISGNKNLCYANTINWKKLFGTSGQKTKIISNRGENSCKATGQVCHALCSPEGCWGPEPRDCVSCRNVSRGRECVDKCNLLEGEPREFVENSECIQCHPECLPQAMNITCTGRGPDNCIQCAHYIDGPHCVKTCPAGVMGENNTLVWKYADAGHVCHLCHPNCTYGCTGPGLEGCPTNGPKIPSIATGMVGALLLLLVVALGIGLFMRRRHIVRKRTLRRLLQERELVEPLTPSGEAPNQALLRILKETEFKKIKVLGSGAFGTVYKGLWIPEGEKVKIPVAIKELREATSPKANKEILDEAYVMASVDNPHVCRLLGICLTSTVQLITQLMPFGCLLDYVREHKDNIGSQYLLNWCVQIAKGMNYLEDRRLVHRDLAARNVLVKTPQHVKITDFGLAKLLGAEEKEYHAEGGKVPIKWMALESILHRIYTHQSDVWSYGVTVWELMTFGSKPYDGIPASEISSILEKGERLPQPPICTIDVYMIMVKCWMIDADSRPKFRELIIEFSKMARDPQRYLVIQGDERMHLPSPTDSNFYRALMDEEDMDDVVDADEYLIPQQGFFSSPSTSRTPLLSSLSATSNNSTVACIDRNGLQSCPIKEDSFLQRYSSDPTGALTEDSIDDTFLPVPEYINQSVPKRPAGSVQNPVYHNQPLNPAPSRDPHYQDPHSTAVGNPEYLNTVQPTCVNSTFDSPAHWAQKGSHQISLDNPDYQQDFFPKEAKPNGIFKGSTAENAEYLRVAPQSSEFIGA

SMILES | IC50 [1] [nM] | inhibition [4] [%] | other results
C[C@@H](Nc1ncnc2[nH]c(-c3ccccc3OC(F)F)cc12)c1ccccc1 | 0.8 | 98 | half-life at 3 µM [2]: 0.412 h; microsomal CLint at 3 µM [3]: 56.2 µL/min/mg
OCc1ccc(-c2cc3c(N[C@H](CO)c4ccccc4)ncnc3[nH]2)cc1 |  |  | half-life at 3 µM [2]: 4.43 h; fraction unbound at 5 µM [5]: 0.11; IC50 [6]: 0.2 nM; microsomal CLint at 3 µM [3]: 5.21 µL/min/mg; inhibition [7]: 98%
COc1cc(C(N)=O)ccc1-c1cc2c(N[C@H](C)c3ccccc3)ncnc2[nH]1 | 0.4 | 98 | 
C[C@@H](Nc1ncnc2[nH]c(-c3ccc(C(N)=O)cc3)cc12)c1ccccc1 | 0.8 | 97 | 
CC(C)Oc1ccccc1-c1cc2c(N[C@H](C)c3ccccc3)ncnc2[nH]1 | 0.6 | 98 | 
C[C@@H](Nc1ncnc2[nH]c(-c3ccccc3OC(F)(F)F)cc12)c1ccccc1 | 4.3 | 92 | 
COc1cc(CNCCN(C)C)ccc1-c1cc2c(N[C@H](CO)c3ccccc3)ncnc2[nH]1 | 0.3 | 100 | 
CC(=O)Nc1ccc(-c2cc3c(N[C@H](C)c4ccccc4)ncnc3[nH]2)cc1 | 0.7 | 97 | 
COc1cnccc1-c1cc2c(N[C@H](CO)c3ccccc3)ncnc2[nH]1 | 0.6 | 97 | 
NC(=O)Cc1cccc(-c2cc3c(N[C@H](CO)c4ccccc4)ncnc3[nH]2)c1 | 0.7 | 100 | 
COc1cc(CNCCN2CCNCC2)ccc1-c1cc2c(N[C@H](CO)c3ccccc3)ncnc2[nH]1 | 0.1 | 98 | IC50 (BaF3): 396 nM; IC50 (A-431): 6200 nM
COc1cc(CNCCN2CCOCC2)ccc1-c1cc2c(N[C@H](CO)c3ccccc3)ncnc2[nH]1 | 0.1 | 97 | 
COc1cc(NC(C)=O)ccc1-c1cc2c(N[C@H](CO)c3ccccc3)ncnc2[nH]1 | 0.8 | 98 | 
COc1cc(CNCCN(C)C)ccc1-c1cc2c(N[C@H](C)c3ccccc3)ncnc2[nH]1 | 0.1 | 99 | IC50 (BaF3): 90 nM; IC50 (A-431): 5000 nM
COc1cc(NS(C)(=O)=O)ccc1-c1cc2c(N[C@H](C)c3ccccc3)ncnc2[nH]1 | 0.7 | 100 | 
COc1cc(CNCCN2CCCCC2)ccc1-c1cc2c(N[C@H](CO)c3ccccc3)ncnc2[nH]1 | 0.1 | 99 | 
COc1cc(C(N)=O)ccc1-c1cc2c(N[C@H](CO)c3ccccc3)ncnc2[nH]1 | 0.5 | 99 | 
C[C@@H](Nc1ncnc2[nH]c(-c3ccc(S(C)(=O)=O)cc3)cc12)c1ccccc1 | 0.4 | 97 | 
OCc1ccc(-c2cc3c(N[C@H](CO)c4ccccc4)ncnc3[nH]2)cc1F | 0.6 | 97 | IC50 (BaF3): 158 nM; IC50 (A-431): 5800 nM
C[C@@H](Nc1ncnc2[nH]c(-c3ccc(NS(C)(=O)=O)cc3)cc12)c1ccccc1 | 0.3 | 98 | Papp [8]: 0.03 10^-6 cm/s; Ratio ([9]; caco-2, 2 h, 10 µM): 23.7; half-life at 3 µM [2]: 1.09 h; Papp [10]: 26.9 10^-6 cm/s; microsomal CLint at 3 µM [3]: 21.2 µL/min/mg; solubility kinetic at 2 h (physchem): 37.5 µM (≈ 15.3 µg/mL)
CS(=O)(=O)Nc1ccc(-c2cc3c(N[C@H](CO)c4ccccc4)ncnc3[nH]2)cc1 |  |  | Papp A→B at 2 h, 10 µM [8]: 0.02 ×10⁻⁶ cm/s; half-life at 3 µM [2]: 2.27 h; Papp B→A at 2 h, 10 µM [10]: 29.2 ×10⁻⁶ cm/s; microsomal CLint at 3 µM [3]: 10.2 µL/min/mg; solubility kinetic at 2 h (physchem): > 100 µM

SMILES | IC50 [1] [nM] | inhibition [4] [%] | other results
COc1cc(CN(C)CCN(C)C)ccc1-c1cc2c(N[C@H](CO)c3ccccc3)ncnc2[nH]1 | 0.1 | 99 | IC50 (BaF3): 77 nM; IC50 (A-431): > 10000 nM
COc1cc(NS(C)(=O)=O)ccc1-c1cc2c(N[C@H](CO)c3ccccc3)ncnc2[nH]1 | 0.3 | 100 | 
C[C@@H](Nc1ncnc2[nH]c(-c3ccncc3)cc12)c1ccccc1 | 0.6 | 97 | 
Cn1c(-c2ccccc2)cc2c(N[C@H](CO)c3ccccc3)ncnc21 | 900 | 20 | 
COc1cc(CNCCS(C)(=O)=O)ccc1-c1cc2c(N[C@H](CO)c3ccccc3)ncnc2[nH]1 | 0.4 | 100 | 
OC[C@@H](Nc1ncnc2[nH]c(-c3cccnc3)cc12)c1ccccc1 | 2.2 | 92 | 
CN(C)CCNCc1ccc(-c2cc3c(N[C@H](CO)c4ccccc4)ncnc3[nH]2)cc1 | 0.3 | 97 | 
CN(C)CCNCc1cc(-c2cc3c(N[C@H](CO)c4ccccc4)ncnc3[nH]2)ccc1F | 1.2 | 96 | Papp A→B at 2 h, 10 µM [8]: 1.6 ×10⁻⁶ cm/s; efflux ratio at 2 h, 10 µM ([9]; Caco-2): 5.9; t1/2 ([2]; microsomes, 0.75 h, 3 µM): 1.72 h; Papp B→A at 2 h, 10 µM [10]: 9.6 ×10⁻⁶ cm/s; CLH ([3]; microsomes, 0.75 h, 3 µM): 2.79 µL/min/mg; solubility kinetic at 2 h (physchem): > 100 µM
COC[C@@H](Nc1ncnc2[nH]c(-c3ccc(CO)cc3OC)cc12)c1ccccc1 | 0.5 | 98 | 
COC[C@@H](Nc1ncnc2[nH]c(-c3ccccc3OC(F)F)cc12)c1ccccc1 | 1.3 | 96 | 
C[C@@H](Nc1ncnc2[nH]c(-c3ccc(S(N)(=O)=O)cc3)cc12)c1ccccc1 | 0.7 | 96 | 
C[C@@H](Nc1ncnc2[nH]c(-c3cccc(C(N)=O)c3)cc12)c1ccccc1 | 1.4 | 95 | 
CCOc1ccccc1-c1cc2c(N[C@H](C)c3ccccc3)ncnc2[nH]1 | 0.3 | 99 | 
OC[C@@H](Nc1ncnc2[nH]c(-c3ccncc3)cc12)c1ccccc1 | 2 | 94 | 
COc1cccc(OC)c1-c1cc2c(N[C@H](C)c3ccccc3)ncnc2[nH]1 | 0.6 | 97 | 
OCc1cc(-c2cc3c(N[C@H](CO)c4ccccc4)ncnc3[nH]2)ccc1F | 1.6 | 96 | 
COc1cc(CO)ccc1-c1cc2c(N[C@H](CO)c3ccccc3)ncnc2[nH]1 |  |  | Papp [8]: 2.98 10^-6 cm/s; half-life at 3 µM [2]: 1.83 h; fraction unbound at 5 µM [5]: 0.08; IC50 [11]: > 25000 nM; Papp [10]: 50.84 10^-6 cm/s; microsomal CLint at 3 µM [3]: 12.6 µL/min/mg; solubility kinetic at 2 h (physchem): > 100 µM
[2H]C([2H])([2H])Oc1ccccc1-c1cc2c(N[C@H](CO)c3ccccc3)ncnc2[nH]1 | 0.4 |  | 
CS(=O)(=O)c1ccc(-c2cc3c(N[C@H](CO)c4ccccc4)ncnc3[nH]2)cc1 | 0.8 | 96 | 
CCOc1ccccc1-c1cc2c(N[C@H](CCO)c3ccccc3)ncnc2[nH]1 | 0.1 | 100 | IC50 (BaF3): 99 nM; IC50 (A-431): 4900 nM
